Experiments:
Type in all cases: in vivo
Conditions in all cases: active ingredient amount 31 g/ha, 14th day after application
[1] = tested on: wheat (Triticum aestivum L.); assay: Test Example 2: soil application on the day after sowing, growth inhibition rate on 14th day
Method in brief: (§1)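 Pre-emergence soil spray, day after sowing; WP or EC formulations diluted to 1,000 L/ha water at set a.i. rates. Visual growth inhibition %, 0 = untreated, 100 = complete kill, read at day 14.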

[2] = tested on: rice (Oryza sativa L.); assay: as above
Method in brief: as §1

[3] = tested on: prickly sida (Sida spinosa L.); assay: as above
Method in brief: as §1

[4] = tested on: velvetleaf (Abutilon theophrasti MEDIC.); assay: as above
Method in brief: as §1

[5] = tested on: crabgrass (Digitaris sanquinalis L.); assay: as above
Method in brief: as §1

[6] = tested on: soybean (Glycine max Merr.); assay: as above
Method in brief: as §1

[7] = tested on: green foxtail (Setaria viridis L.); assay: as above
Method in brief: as §1

[8] = tested on: redroot pigweed (Amaranthus retroflexus L.); assay: as above
Method in brief: as §1

[9] = tested on: corn (Zea mays L.); assay: as above
Method in brief: as §1

[10] = tested on: barnyardgrass (Echinochloa crus-qalli L.); assay: as above
Method in brief: as §1

[11] = tested on: crabgrass (Digitaria sanquinalis L.); assay: Test Example 1: foliar treatment, growth inhibition rate on 14th day
Method in brief: (§2)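 Using a small sprayer, formulated compound in water (0.1 vol % surfactant, 1,000 L/ha) was applied to seedlings grown from seed in upland soil. Fourteen days on, growth state was observed and expressed as percent inhibition from 0 to 100.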

[12] = tested on: wheat (Triticum aestivum L.); assay: as above
Method in brief: as §2

[13] = tested on: rice (Oryza sativa L.); assay: as above
Method in brief: (§3)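 Growth inhibition rates (%) come from visual observation on the 14th day following a single foliar application. Soybean was sprayed at the primary leaf stage, rice at 0.2–2.7 leaves, wild oat at 0.4–1.2, green foxtail at 0.5–3.2.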

[14] = tested on: italian ryegrass (Lolium multiflorum Lam.); assay: as above
Method in brief: as §2

[15] = tested on: soybean (Glycine max Merr.); assay: as above
Method in brief: as §3

[16] = tested on: green foxtail (Setaria viridis L.); assay: as above
Method in brief: as §3

[17] = tested on: redroot pigweed (Amaranthus retroflexus L.); assay: as above
Method in brief: as §2

[18] = tested on: wild oat (Avena fatua L.); assay: as above
Method in brief: as §3

[19] = tested on: corn (Zea mays L.); assay: as above
Method in brief: as §2

[20] = tested on: barnyardgrass (Echinochloa crus-qalli L.); assay: as above
Method in brief: as §2

[21] = visual, 0 = non-treated, 100 = complete kill

Compound	Growth inhibition rate (%) Wheat [1] [%]	Growth inhibition rate (%) Rice [2] [%]	Growth inhibition rate (%) Prickly sida [3] [%]	Growth inhibition rate (%) Velvetleaf [4] [%]	Growth inhibition rate (%) Crabgrass [5] [%]	Growth inhibition rate (%) Soybean [6] [%]	Growth inhibition rate (%) Green foxtail [7] [%]	Growth inhibition rate (%) Redroot pigweed [8] [%]	Growth inhibition rate (%) Corn [9] [%]	Growth inhibition rate (%) Barnyardgrass [10] [%]	Growth inhibition rate (%) Crabgrass [11] [%]	Growth inhibition rate (%) Wheat [12] [%]	Growth inhibition rate (%) Rice [13] [%]	Growth inhibition rate (%) Italian ryegrass [14] [%]	Growth inhibition rate (%) Soybean [15] [%]	Growth inhibition rate (%) Green foxtail [16] [%]	Growth inhibition rate (%) Redroot pigweed [17] [%]	Growth inhibition rate (%) Wild oat [18] [%]	Growth inhibition rate (%) Corn [19] [%]	Growth inhibition rate (%) Barnyardgrass [20] [%]	also measured
COCC(=O)Oc1c(C)nn(C)c(=O)c1-c1cc(Oc2cnc3cc(Cl)ccc3n2)ccc1C [Compound 3-45]	0	25	0	0	20	0	85	0	0	95	–	–	–	–	–	–	–	–	–	–	Growth inhibition rate (%) Crabgrass [11, 21]: 99%; Growth inhibition rate (%) Wheat [12, 21]: 98%; Growth inhibition rate (%) Rice [13, 21]: 98%; Growth inhibition rate (%) Italian ryegrass [14, 21]: 100%; Growth inhibition rate (%) Soybean [15, 21]: 25%; Growth inhibition rate (%) Green foxtail [16, 21]: 99%; Growth inhibition rate (%) Redroot pigweed [17, 21]: 0%; Growth inhibition rate (%) Wild oat [18, 21]: 100%; Growth inhibition rate (%) Corn [19, 21]: 45%; Growth inhibition rate (%) Barnyardgrass [20, 21]: 100%
CC(=O)Oc1cnn(CC2CC2)c(=O)c1-c1cccc(Oc2ncc(C(F)(F)F)cc2Cl)c1C [1-170]	0	0	0	0	93	0	98	0	0	75	99	0	40	30	0	98	10	40	99	95	–
CC(=O)Oc1c(C)nn(C)c(=O)c1-c1cc(Oc2ncc(C(F)(F)F)cc2F)ccc1C [Compound 2-63]	0	15	0	0	100	0	98	0	0	100	98	95	90	100	0	100	0	100	100	100	–
CCc1ccc(Oc2nc3ccc(Cl)cc3o2)cc1-c1c(OC(C)=O)c(C)nn(C)c1=O [Compound 2-159]	0	0	0	0	98	0	99	0	0	100	100	99	100	100	35	100	0	100	100	100	–
CCc1ccc(Sc2ncc(C(F)(F)F)cc2Cl)cc1-c1c(OC(C)=O)c(C)nn(C)c1=O [1-46]	30	30	0	0	90	0	99	0	0	80	100	98	80	99	0	100	30	100	98	100	–
CCOC(=O)Oc1c(C)nn(C)c(=O)c1-c1cc(Oc2ncc(C(F)(F)F)cc2Cl)ccc1C [1-41]	0	0	0	0	100	0	100	0	20	100	99	98	80	100	0	100	10	99	98	100	–
Cc1ccc(Oc2cnc3cc(Cl)ccc3n2)cc1-c1c(OC(=O)c2ccccn2)c(C)nn(C)c1=O [Compound 3-51]	0	0	0	0	95	0	100	0	0	99	–	–	–	–	–	–	–	–	–	–	Growth inhibition rate (%) Crabgrass [11, 21]: 100%; Growth inhibition rate (%) Wheat [12, 21]: 99%; Growth inhibition rate (%) Rice [13, 21]: 60%; Growth inhibition rate (%) Italian ryegrass [14, 21]: 99%; Growth inhibition rate (%) Soybean [15, 21]: 30%; Growth inhibition rate (%) Green foxtail [16, 21]: 100%; Growth inhibition rate (%) Redroot pigweed [17, 21]: 0%; Growth inhibition rate (%) Wild oat [18, 21]: 99%; Growth inhibition rate (%) Corn [19, 21]: 60%; Growth inhibition rate (%) Barnyardgrass [20, 21]: 99%
CC(=O)Oc1c(C)nn(C)c(=O)c1-c1cc(Oc2cnc(C(F)(F)F)cn2)ccc1C [Compound 2-195]	0	20	0	0	98	0	99	0	0	98	90	35	40	85	30	93	0	90	83	93	–
Cc1ccc(Oc2nc3ccc(Cl)cc3o2)cc1-c1c(O)c(C)nn(C)c1=O [Compound 2-8]	0	20	0	0	95	0	100	0	0	100	100	25	15	83	0	99	0	65	10	100	–

— patent US10870638B2, “Pyridazinone compound or its salt, and herbicide containing it” (ISHIHARA SANGYO KAISHA, LTD., priority 2016, dated 2020)
